Consider one compound from patent publication US6346260B1, “Microbicidal active ingredients” (Ciba Specialty Chemicals Corporation, priority 1999, dated 2002).

Common to all, as to format: cell-based
Experiment [1] concerns Corynebacterium xerosis ATCC 373. Nature of the experiment: MIC in microtitre plates, Corynebacterium xerosis. The settings on record: ATCC373, Table 1, 48 hours at 37° C., ≦20% growth. Here is the method: (§1) Determination of Antimicrobial Activity in Accordance with the Microtitre Plate Method Determination of the Minimum Inhibitory Concentration (MIC value) in Microtitre Plates casein-soybean flour-peptone bouillon for the preparation of the precultures of the test bacteria and yeast. Corynebacterium xerosis ATCC 373 The test substances are predissolved in dimethyl sulfoxide (DMSO) and tested in a dilution series of 1:2. Bacteria and yeast are cultured overnight in CASO bouillon, the mould on mycological slant agar and rinsed off with 10 ml of 0.85% sodium chloride solution (+0.1% TritonX-100). All test organisms are adjusted to an organism count of 1-5*10^6 CFU/ml with 0.85% sodium chloride solution. The test substances are prepipetted into microtitre plates in an amount of 8 μl per well. Previously diluted test organism suspensions are diluted 1:100 in CASO bouillon (bacteria and yeast) and Sabouraud 2% glucose bouillon (mould) and added to the test substances in an amount of 192 μl per well. The test batches are incubated for 48 hours at 37° C. (bacteria and yeast) or for 5 days at 28° C. (mould). After incubation, the growth is determined by reference to the turbidity of the test batches (optical density) at 620 nm in a microplate reader. […]

Experiment [2] has as its system Staphylococcus aureus ATCC 9144. Nature of the experiment: MIC in microtitre plates, Staphylococcus aureus. Conditions: ATCC9144, Table 1, 48 hours at 37° C., ≦20% growth. How it is done: as §1, with “Staphylococcus aureus” for “Corynebacterium xerosis”, “9144” for “373”
For experiment [3], the system named is Candida albicans ATCC 10231. Nature of the experiment: MIC in microtitre plates, Candida albicans. The settings on record: Candida albicans, ATCC10231; Table 1; ATCC 10231; 48 hours at 37° C.; ≦20% growth; read-out: MIC Candida albicans. Here is the method: (§2) Determination of Antimicrobial Activity in Accordance with the Microtitre Plate Method Determination of the Minimum Inhibitory Concentration (MIC value) in Microtitre Plates casein-soybean flour-peptone bouillon for the preparation of the precultures of the test bacteria and yeast. Candida albicans ATCC 10231 The test substances are predissolved in dimethyl sulfoxide (DMSO) and tested in a dilution series of 1:2. Bacteria and yeast are cultured overnight in CASO bouillon, the mould on mycological slant agar and rinsed off with 10 ml of 0.85% sodium chloride solution (+0.1% TritonX-100). All test organisms are adjusted to an organism count of 1-5*10^6 CFU/ml with 0.85% sodium chloride solution. The test substances are prepipetted into microtitre plates in an amount of 8 μl per well. Previously diluted test organism suspensions are diluted 1:100 in CASO bouillon (bacteria and yeast) and Sabouraud 2% glucose bouillon (mould) and added to the test substances in an amount of 192 μl per well. The test batches are incubated for 48 hours at 37° C. (bacteria and yeast) or for 5 days at 28° C. (mould). After incubation, the growth is determined by reference to the turbidity of the test batches (optical density) at 620 nm in a microplate reader. The minimum inhibitory concentration (MIC value) is the concentration of substance at which (compared with the growth of the control) an appreciable inhibition of the growth (≦20% growth) of the test organisms is ascertained. One microtitre plate is used for each test organism and substance concentration. All substances are tested in duplicate.

Experiment [4] has as its system Escherichia coli NCTC 8196. Put plainly: MIC in microtitre plates, Escherichia coli. Conditions: Escherichia coli, NCTC8196; Table 1; NCTC 8196; 48 hours at 37° C.; ≦20% growth; read-out: MIC Escherichia coli. Here is the method:
as §2, with “Escherichia coli NCTC 8196” for “Candida albicans ATCC 10231”

Consider `O=C(CC(=O)c1ccccc1O)c1ccco1` [Compound of formula (101)], for which the MIC in experiment [1] is 50 µg/mL; in experiment [2], 100 to 500 µg/mL; in experiment [3], 100 to 500 µg/mL; in experiment [4], 50 µg/mL.
